Earlier results as cited in US7442834B2, “Process suitable for industrial scale production of gabapentin” (priority 2006, dated 2008).

What was measured:
[1] = in vivo
[2] = from U.S. Pat. No. 6,518,456

O=C1CC2(CCCCC2)CN1 [IV, 3,3-pentamethylenebutyrolactam]
LD50 (cytotoxicity) [1]: 300 mg/kg

NCC1(CC(=O)O)CCCCC1 [gabapentin (I), 1-(aminomethyl)-1-cyclohexaneacetic acid]
LD50 (cytotoxicity) [1]: > 8000 mg/kg
isoelectric point (pH) [2]: 7.1-7.2
